ChEMBL document CHEMBL5385867, “2-Phenoxy-3, 4'-bipyridine derivatives inhibit AURKB-dependent mitotic processes by disrupting its localization” (Eur J Med Chem, 2023)
One block for each molecule: values may come before it. The source made the active and inactive calls. The calls are words filed in the database; no cut-off is given here.

Assays:
[1] = target: Aurora kinase B (Homo sapiens) (UniProt Q96GD4); assay: Disruption of AURKB localization in human RPE-MYC transfected with GFP-H2B assessed as minimal effective concentration that induces mitotic arrest, polyploidy, cell death and cell number reduction by MIPS assay; type: cell-based
Chain of Aurora kinase B (Homo sapiens) (Q96GD4 whole entry, the tested form may be a part): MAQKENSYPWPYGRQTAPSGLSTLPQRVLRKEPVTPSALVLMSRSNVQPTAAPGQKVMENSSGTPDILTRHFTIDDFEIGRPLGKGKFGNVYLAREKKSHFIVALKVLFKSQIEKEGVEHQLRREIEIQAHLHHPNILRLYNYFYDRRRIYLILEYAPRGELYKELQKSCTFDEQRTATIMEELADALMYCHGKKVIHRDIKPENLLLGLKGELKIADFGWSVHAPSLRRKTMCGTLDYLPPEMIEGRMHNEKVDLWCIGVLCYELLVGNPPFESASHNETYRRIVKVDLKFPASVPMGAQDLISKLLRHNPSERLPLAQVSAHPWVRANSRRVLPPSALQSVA

[2] = target: Aurora kinase B (Homo sapiens) (UniProt Q96GD4); assay: Inhibition of Aurora kinase B in human RPE-MYC cells transfected with BCL2 assessed as inhibition of histone H3 phosphorylation at Ser10 residue at MEC for polyploidy measured after 6 hrs by immunofluorescence staining based analysis; type: cell-based
[3] = target: Epithelial discoidin domain-containing receptor 1 (Homo sapiens) (UniProt Q08345); assay: Inhibition of DDR1 (unknown origin)
Chain of Epithelial discoidin domain-containing receptor 1 (Homo sapiens) (Q08345 whole entry, the tested form may be a part): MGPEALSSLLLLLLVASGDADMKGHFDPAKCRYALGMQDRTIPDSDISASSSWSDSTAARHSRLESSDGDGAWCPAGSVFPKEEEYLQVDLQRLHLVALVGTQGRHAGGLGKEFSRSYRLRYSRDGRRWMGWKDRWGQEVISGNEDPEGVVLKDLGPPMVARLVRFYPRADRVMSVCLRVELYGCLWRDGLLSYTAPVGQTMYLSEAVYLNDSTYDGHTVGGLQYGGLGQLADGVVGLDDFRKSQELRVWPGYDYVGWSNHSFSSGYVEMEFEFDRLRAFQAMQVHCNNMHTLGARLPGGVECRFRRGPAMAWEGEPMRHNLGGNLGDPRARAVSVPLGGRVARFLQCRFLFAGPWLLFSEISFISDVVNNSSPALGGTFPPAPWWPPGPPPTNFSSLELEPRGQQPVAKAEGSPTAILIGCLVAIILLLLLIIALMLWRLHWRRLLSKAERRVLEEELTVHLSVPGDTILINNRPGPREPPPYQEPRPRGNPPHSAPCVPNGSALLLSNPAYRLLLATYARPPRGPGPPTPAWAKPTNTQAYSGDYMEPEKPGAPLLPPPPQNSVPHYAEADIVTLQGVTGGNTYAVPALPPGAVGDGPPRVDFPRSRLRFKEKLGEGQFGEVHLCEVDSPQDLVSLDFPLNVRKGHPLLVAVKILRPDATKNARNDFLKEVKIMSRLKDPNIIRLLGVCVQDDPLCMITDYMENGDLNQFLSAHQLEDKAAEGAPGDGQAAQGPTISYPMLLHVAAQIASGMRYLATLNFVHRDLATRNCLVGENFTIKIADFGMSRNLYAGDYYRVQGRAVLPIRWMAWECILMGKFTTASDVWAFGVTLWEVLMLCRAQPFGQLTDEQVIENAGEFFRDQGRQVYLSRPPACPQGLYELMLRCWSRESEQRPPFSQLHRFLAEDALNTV

[4] = target: Aurora kinase B (Homo sapiens) (UniProt Q96GD4); assay: Disruption of AURKB localization in human RPE-MYC cells transfected with BCL2 assessed as mislocalization of AURKB at the spindle zone in anaphase cells by immunofluorescence staining based analysis; type: cell-based
[5] = target: Aurora kinase B (Homo sapiens) (UniProt Q96GD4); assay: Disruption of AURKB localization in human RPE-MYC cells transfected with BCL2 assessed as loss of localization of PLK1 at the spindle-midzone by immunofluorescence staining based analysis; type: cell-based
[6] = target: Aurora kinase B (Homo sapiens) (UniProt Q96GD4); assay: Disruption of AURKB localization in human RPE-MYC cells transfected with BCL2 assessed as loss of localization of MKLP1 at the spindle-midzone by immunofluorescence staining based analysis; type: cell-based
[7] = target: Aurora kinase B (Homo sapiens) (UniProt Q96GD4); assay: Disruption of AURKB localization in human RPE-MYC cells transfected with BCL2 assessed as loss of localization of microtubules at the spindle-midzone by immunofluorescence staining based analysis; type: cell-based
[8] = Dose normalized AUC (0 to 6 hrs) in BALB/c mouse at 50 mg/kg, po compound formulated in PEG300 and administered as single dose by LC-MS/MS analysis; type: ADME, organism-based; conditions: in vivo
[9] = Cmax in BALB/c mouse at 50 mg/kg, po compound formulated in PEG300 and administered as single dose by LC-MS/MS analysis; type: ADME, organism-based; design: dose 50 mg/kg, route po; conditions: in vivo

Structure (SMILES): COC(=O)c1ccc(Oc2ncccc2-c2ccnc(N)n2)cc1
MEC [1]: > 20 µM

Structure (SMILES): COc1cc(OC)cc(Oc2ncccc2-c2cccnc2)c1
MEC [1]: 0.91 µM

Structure (SMILES): CNC(=O)c1cc(Oc2ncccc2-c2ccncc2)cc(OC(F)(F)F)c1
MEC [1]: 0.16 µM

Structure (SMILES): Nc1ccc(Oc2ncccc2-c2ccnc(N)n2)cc1
MEC [1]: 5 µM

Structure (SMILES): COc1cc(OC)cc(Oc2ncccc2-c2ccncc2)c1
MEC [1]: 0.14 µM

Structure (SMILES): COc1cc(OC)cc(Oc2ncccc2-c2ccnc(N)c2)c1
MEC [1]: 0.28 µM

Structure (SMILES): COc1cc(OC)cc(Oc2ncccc2-c2ccncn2)c1
MEC [1]: 0.75 µM

Structure (SMILES): COc1cc(Oc2ncccc2-c2ccncc2)cc(-c2nc(C)no2)c1
MEC [1]: 0.42 µM

Structure (SMILES): COc1cccc(Oc2ncccc2-c2ccnc(N)n2)c1
MEC [1]: 1.5 µM

inhibition [2]: inactive
inhibition [3]: Active
Activity [4]: Active
Activity [5]: Active
Activity [6]: Active
Activity [7]: Active
Structure (SMILES): COc1cc(NC(C)=O)cc(Oc2ncccc2-c2ccncc2)c1
MEC [1]: 0.11 µM

inhibition [2]: inactive
AUC/dose [8]: 0.72 µM·h/mg/kg
Cmax [9]: 14.4 µM
Activity [4]: Active
Activity [5]: Active
Activity [6]: Active
Activity [7]: Active
Structure (SMILES): CNC(=O)c1cc(Oc2ncccc2-c2ccnc(C)c2)cc(OC(F)(F)F)c1
MEC [1]: 0.12 µM

Structure (SMILES): COC(=O)c1cc(OC)cc(Oc2ncccc2-c2ccncc2)c1
MEC [1]: 0.02 µM

inhibition [2]: inactive
Activity [4]: Active
Activity [5]: Active
Activity [6]: Active
Activity [7]: Active
Structure (SMILES): COc1cc(NC(C)=O)cc(Oc2ncccc2-c2ccnc(C)c2)c1
MEC [1]: 0.07 µM

Structure (SMILES): COc1cc(OC)cc(Oc2ncccc2-c2ccnc(N)n2)c1
MEC [1]: 0.37 µM

Structure (SMILES): COc1cc(OC)cc(Oc2ncccc2-c2ccccc2)c1
MEC [1]: 2.08 µM

Structure (SMILES): COc1cc(OC)cc(Oc2ncccc2-c2cccc(N)n2)c1
MEC [1]: 0.96 µM
